Reference: a compilation of properties of binary mixtures (doi:10.1007/s10953-012-9875-7)

Assay: xn = mol fraction of the nth substance listed
Conditions: 101 kPa

O + CCCC[N+]1(C)CCCC1.N#C[S-]
x1 = 1
Conditions | viscosity [mPa·s]
298.15 K | 0.89
308.15 K | 0.74
318.15 K | 0.63
328.15 K | 0.56
338.15 K | 0.5
348.15 K | 0.43

CCCC[N+]1(C)CCCCC1.N#C[S-] + O
viscosity [mPa·s]
Conditions | x2 = 0 | x2 = 0.2774 | x2 = 0.3741 | x2 = 0.5111 | x2 = 0.6302 | x2 = 0.7172 | x2 = 0.8248 | x2 = 0.9351
318.15 K | 265 | 94.9 | – | 33 | 19.13 | 12.13 | 6.02 | 1.97
328.15 K | 152 | – | – | 22.33 | – | 8.79 | 4.47 | 1.57
338.15 K | 93.5 | – | 25.6 | 15.96 | 9.94 | 6.6 | 3.41 | 1.28
348.15 K | 60.5 | 27.83 | 18.51 | – | 7.6 | 5.08 | 2.71 | 1.07

O + CCCC[n+]1ccc(C)cc1.N#C[S-]
x1 = 1
Conditions | viscosity [mPa·s]
298.15 K | 0.89
308.15 K | 0.74
318.15 K | 0.63
328.15 K | 0.56
338.15 K | 0.5
348.15 K | 0.43

CCCC[N+]1(C)CCCC1.N#C[S-] + O
viscosity [mPa·s]
Conditions | x2 = 0 | x2 = 0.0853 | x2 = 0.2203 | x2 = 0.3555 | x2 = 0.5252 | x2 = 0.6634 | x2 = 0.783 | x2 = 0.8623 | x2 = 0.9657
298.15 K | 109 | 92 | – | 49.3 | – | 17.6 | – | – | 1.74
308.15 K | 70.4 | 59.4 | 45.2 | 33.2 | – | – | 7.27 | – | –
318.15 K | 47.8 | 40.3 | – | 23.5 | 14.38 | 9.15 | 5.46 | – | –
328.15 K | 34.1 | – | 23 | 17.3 | 10.87 | 7.02 | – | 2.54 | 0.92
338.15 K | – | 21.5 | – | 13.08 | 8.49 | 5.53 | – | 2.02 | –
348.15 K | 19.3 | 16.5 | – | 10.21 | 6.81 | – | 2.65 | 1.67 | –
